# US20100267697A1, “ION CHANNEL MODULATORS” (Wyeth, priority 2006, published 2010)
# pIC50: −log10 of the molar value. Read-outs that look alike come from different tables or passages of the source.
# Target: T1, Cav2.2 (Homo sapiens, UniProt Q00975)
# T1 construct: expressed in transfected cells; host or cells: HEK-293T/17 (transient, FuGENE 6)
# Experiment: HEK assay (whole-cell patch clamp, transiently transfected HEK-293T/17 cells, pulses P1 and P5)
# Assay type: cell-based
# Conditions: holding potential −100 mV
# Experimental: HEK-293T/17 cells were transiently transfected in a similar manner as described in FuGENE 6 Package Insert Version 7, April 2002, Roche Applied Science, Indianapolis, Ind. The cells were plated at 2.5×10^5 cells in 2 mL in a 6-well plate, incubated for one night, and achieved a ˜30-40% confluence. In a small sterile tube, sufficient serum-free medium was added as diluent for FuGENE Transfection Reagent (Roche Applied Science, Indianapolis, Ind.) to a total volume of 100 μL. To this medium was added 3 μL of FuGENE 6 Reagent. The mixture was tapped gently to mix. To the prediluted FuGENE 6 Reagent was added 2 μg of DNA solution (0.8-2.0 μg/μL). The DNA/Fugene 6 mixture was gently pipeted to mix the contents and incubated for about 15 minutes at room temperature. The complex mixture was then added to the HEK-293T/17 cells, distributed around the well, and swirled to ensure even dispersal. The cells were returned to the incubator for 24 hours. The transfected cells were then replated at density 2.5×10^5 in a 35 mm dish with 5 glass coverslips and grew in low serum (1%) media for 24 hours. Coverslips with isolated cells were then transferred into a chamber, and calcium channel (e.g., L-type, N-type, etc.) current or other currents for counter screening were recorded from the transiently transfected HEK-293T/17 cells.
# The whole-cell voltage clamp configuration of the patch clamp technique was employed to evaluate voltage-dependent calcium currents essentially as described by Thompson and Wong (1991), J. Physiol., 439: 671-689, the entire disclosure of which is herein incorporated by reference. To record calcium channel (e.g., L-type, N-type, etc.) currents for evaluation of inhibitory potency of compounds (steady-state concentration-response analysis), five pulses of 20-30 ms voltage steps to about +10 mV (the peak of the current voltage relationship) were delivered at five Hz every 30 second from a holding potential at −100 mV. In order to obtain an estimate of the degree of use-dependent block of the test compounds, IC50 values were determined at the first and fifth pulse of the train (P1 and P5, respectively, in Table 2). Compound evaluations were carried out essentially as described by Sah D. W. and Bean B. P. (1994), Mol. Pharmacol., 45:84-92, the entire disclosure of which is herein incorporated by reference.
# [1] = fifth pulse (P5) of 5 Hz train, read-out: HEK Cav2.2 P5 IC50
# [2] = first pulse (P1) of 5 Hz train, read-out: HEK Cav2.2 P1 IC50
# T1 sequence (Q00975 whole entry): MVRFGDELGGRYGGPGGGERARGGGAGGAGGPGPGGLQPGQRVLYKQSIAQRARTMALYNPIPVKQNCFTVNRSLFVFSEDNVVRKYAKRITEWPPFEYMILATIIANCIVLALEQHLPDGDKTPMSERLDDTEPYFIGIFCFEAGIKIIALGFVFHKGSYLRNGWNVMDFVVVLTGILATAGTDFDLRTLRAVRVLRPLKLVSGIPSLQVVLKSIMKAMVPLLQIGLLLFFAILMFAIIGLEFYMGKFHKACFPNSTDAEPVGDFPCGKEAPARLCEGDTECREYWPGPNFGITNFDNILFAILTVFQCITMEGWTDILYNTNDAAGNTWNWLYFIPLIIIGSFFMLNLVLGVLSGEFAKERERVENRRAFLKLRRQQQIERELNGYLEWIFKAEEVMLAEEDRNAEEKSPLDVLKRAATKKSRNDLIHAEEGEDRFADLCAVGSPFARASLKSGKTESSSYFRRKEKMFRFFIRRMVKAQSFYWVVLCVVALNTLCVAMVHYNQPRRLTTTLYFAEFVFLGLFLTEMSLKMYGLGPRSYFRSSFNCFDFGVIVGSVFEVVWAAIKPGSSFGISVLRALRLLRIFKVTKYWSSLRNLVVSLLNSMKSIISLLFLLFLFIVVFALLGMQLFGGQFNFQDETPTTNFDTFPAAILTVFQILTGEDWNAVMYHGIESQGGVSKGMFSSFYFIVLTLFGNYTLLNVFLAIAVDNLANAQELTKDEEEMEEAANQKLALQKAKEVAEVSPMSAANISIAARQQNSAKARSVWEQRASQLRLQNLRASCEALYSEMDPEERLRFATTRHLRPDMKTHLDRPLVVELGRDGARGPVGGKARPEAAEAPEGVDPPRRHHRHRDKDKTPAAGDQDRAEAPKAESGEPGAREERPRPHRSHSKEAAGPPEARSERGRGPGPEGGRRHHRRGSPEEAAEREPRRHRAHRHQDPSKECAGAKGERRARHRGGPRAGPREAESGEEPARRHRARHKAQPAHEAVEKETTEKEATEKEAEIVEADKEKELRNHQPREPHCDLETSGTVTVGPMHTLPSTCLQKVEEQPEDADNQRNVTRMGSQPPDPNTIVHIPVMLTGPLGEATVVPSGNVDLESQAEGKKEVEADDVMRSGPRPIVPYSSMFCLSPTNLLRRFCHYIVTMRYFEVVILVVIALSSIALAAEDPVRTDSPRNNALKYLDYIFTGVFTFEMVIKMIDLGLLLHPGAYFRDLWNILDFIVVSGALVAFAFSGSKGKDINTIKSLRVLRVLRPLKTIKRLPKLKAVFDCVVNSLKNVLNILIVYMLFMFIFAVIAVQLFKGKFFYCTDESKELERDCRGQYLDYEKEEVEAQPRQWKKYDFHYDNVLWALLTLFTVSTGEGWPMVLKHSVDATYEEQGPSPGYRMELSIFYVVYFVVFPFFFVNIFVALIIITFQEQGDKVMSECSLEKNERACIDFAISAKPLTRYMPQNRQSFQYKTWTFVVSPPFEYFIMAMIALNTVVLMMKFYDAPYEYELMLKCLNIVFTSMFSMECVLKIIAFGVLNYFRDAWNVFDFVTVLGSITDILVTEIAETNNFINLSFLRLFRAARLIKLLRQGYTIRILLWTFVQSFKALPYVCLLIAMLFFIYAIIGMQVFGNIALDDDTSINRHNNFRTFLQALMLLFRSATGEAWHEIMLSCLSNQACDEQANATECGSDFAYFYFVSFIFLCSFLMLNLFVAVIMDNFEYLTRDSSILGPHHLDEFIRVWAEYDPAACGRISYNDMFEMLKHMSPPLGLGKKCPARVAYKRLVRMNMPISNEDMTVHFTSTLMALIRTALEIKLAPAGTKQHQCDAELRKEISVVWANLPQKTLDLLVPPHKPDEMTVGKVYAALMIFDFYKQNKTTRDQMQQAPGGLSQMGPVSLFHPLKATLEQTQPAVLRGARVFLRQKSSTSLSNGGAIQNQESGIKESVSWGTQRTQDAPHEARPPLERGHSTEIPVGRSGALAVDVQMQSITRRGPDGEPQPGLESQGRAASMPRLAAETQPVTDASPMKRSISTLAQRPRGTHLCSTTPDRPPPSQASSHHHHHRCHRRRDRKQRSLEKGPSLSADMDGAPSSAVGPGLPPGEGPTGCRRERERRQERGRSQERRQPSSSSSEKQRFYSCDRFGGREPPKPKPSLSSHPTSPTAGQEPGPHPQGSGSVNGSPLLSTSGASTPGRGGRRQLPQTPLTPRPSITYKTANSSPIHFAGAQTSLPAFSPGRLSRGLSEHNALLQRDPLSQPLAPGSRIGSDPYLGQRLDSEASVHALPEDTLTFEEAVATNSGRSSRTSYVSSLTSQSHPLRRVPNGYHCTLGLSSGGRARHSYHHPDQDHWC
# T1 sequence (P54284 whole entry partner): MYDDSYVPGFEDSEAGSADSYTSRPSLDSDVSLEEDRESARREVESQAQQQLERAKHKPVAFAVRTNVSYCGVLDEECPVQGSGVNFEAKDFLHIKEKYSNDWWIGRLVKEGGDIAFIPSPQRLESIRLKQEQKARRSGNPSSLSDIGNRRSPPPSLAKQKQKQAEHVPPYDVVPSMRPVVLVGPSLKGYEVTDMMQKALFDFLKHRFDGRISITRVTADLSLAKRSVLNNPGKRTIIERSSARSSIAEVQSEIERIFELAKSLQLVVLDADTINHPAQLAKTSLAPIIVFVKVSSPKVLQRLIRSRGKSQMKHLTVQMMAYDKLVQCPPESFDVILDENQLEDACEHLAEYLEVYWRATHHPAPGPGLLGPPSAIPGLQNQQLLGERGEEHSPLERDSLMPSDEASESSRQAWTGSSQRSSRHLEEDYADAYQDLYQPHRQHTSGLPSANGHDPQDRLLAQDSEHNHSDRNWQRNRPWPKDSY
# T1 sequence (P54289 25-946 partner limits assumed): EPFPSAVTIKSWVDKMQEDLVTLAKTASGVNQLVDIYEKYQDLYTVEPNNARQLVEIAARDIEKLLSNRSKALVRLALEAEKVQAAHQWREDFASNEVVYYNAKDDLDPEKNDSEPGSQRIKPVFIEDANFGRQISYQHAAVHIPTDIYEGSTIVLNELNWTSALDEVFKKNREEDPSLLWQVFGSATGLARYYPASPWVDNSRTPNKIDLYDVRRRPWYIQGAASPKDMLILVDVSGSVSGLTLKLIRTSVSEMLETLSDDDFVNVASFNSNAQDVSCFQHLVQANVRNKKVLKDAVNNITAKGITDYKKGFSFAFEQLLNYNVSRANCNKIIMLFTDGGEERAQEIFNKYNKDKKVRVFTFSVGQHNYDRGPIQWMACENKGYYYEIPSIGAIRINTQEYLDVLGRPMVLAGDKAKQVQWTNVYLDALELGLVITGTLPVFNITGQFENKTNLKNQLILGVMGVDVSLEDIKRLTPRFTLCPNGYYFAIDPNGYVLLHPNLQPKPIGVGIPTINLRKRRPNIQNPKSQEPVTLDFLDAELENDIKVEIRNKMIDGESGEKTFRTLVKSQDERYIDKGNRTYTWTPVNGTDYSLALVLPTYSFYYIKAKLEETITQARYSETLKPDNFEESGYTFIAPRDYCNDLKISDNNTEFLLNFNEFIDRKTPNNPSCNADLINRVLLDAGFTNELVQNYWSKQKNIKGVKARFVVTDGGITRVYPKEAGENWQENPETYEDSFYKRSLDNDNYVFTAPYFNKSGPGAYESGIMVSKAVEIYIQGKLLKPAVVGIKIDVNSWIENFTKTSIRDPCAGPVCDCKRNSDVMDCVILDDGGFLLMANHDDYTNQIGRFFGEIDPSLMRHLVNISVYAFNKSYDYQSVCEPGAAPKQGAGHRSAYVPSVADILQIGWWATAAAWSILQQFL
# T1 sequence (P54289 947-1103 partner limits assumed): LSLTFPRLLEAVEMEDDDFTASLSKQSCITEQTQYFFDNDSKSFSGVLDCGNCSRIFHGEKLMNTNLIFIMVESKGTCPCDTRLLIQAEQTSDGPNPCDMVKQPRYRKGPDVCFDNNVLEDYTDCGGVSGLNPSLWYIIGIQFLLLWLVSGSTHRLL
smiles,measurement,setting,value
"CC(C)(C)C(=O)N(Cc1ccc(N2CC[C@@H](Oc3ccccn3)C2)nc1)c1ccc(F)cc1 [Compound 55, N-(4-Fluorophenyl)-2,2-dimethyl-N-{6-[3-(pyridin-2-yloxy)-pyrroldiin-1-yl]-pyridin-3-ylmethyl}-propionamide]",pIC50,[1],6.22
same,pIC50,[2],5.77
"CNC1CCN(c2ccc(CN(C(=O)C(C)(C)C)c3ccc(F)cc3)cn2)C1 (stereo not shown) [Compound 56, N-(4-Fluorophenyl)-2,2-dimethyl-N-[6-(3-methylamino-pyrrolidin-1-yl)-pyridin-3-ylmethyl]-propionamide]",pIC50,[1],5.55
same,pIC50,[2],5.22
"CCN(CCc1cccnc1)c1ccc(CN(C(=O)C(C)(C)C)c2ccc(F)cc2)cn1 [Compound 58, N-{6-[Ethyl-(2-pyridin-3-yl-ethyl)-amino]-pyridin-3-ylmethyl}-N-(4-fluorophenyl)-2,2-dimethyl-propionamide]",pIC50,[1],6.05
same,pIC50,[2],5.31
"CC(C)(C)C(=O)N(Cc1ccc(NCCc2cccnc2)nc1)c1ccc(F)cc1 [Compound 59, N-(4-Fluorophenyl)-2,2-dimethyl-N-[6-(2-pyridin-3-yl-ethylamino)-pyridin-3-ylmethyl]-propionamide]",pIC50,[1],5.42
same,pIC50,[2],4.54
"CCN(CC)c1ccc(CN(C(=O)C(C)(C)n2cc(Cc3ccccc3)nn2)c2ccc(F)cc2)cn1 [Compound 63, 2-(4-Benzyl-[1,2,3]triazol-1-yl)-N-(6-diethylamino-pyridin-3-ylmethyl)-N-(4-fluorophenyl)-isobutyramide]",pIC50,[1],6.15
same,pIC50,[2],5.57
"CN(c1ccccc1)c1nc(CN(C(=O)C(C)(C)C)c2ccc(F)cc2)cs1 [Compound 65, N-(4-Fluorophenyl)-2,2-dimethyl-N-[2-(methyl-phenyl-amino)-thiazol-4-ylmethyl]-propionamide]",pIC50,[1],6.22
same,pIC50,[2],5.74
"CN(Cc1ccco1)c1ccc(CN(C(=O)C(C)(C)C)c2ccc(F)cc2)cn1 [Compound 66, N-(4-Fluorophenyl)-N-[6-(furan-2-ylmethyl-methyl-amino)-pyridin-3-ylmethyl]-2,2-dimethyl-propionamide]",pIC50,[1],5.96
same,pIC50,[2],5.46
"CC(C)(C)Nc1ccc(CN(C(=O)C(C)(C)C)c2ccc(F)cc2)cn1 [Compound 67, N-(6-tert-Butylamino-pyridin-3-ylmethyl)-N-(4-fluorophenyl)-2,2-dimethyl-propionamide]",pIC50,[1],5.43
same,pIC50,[2],5.03
"COc1ccc(OCc2nc(CN(C(=O)C(C)(C)C)c3ccc(F)cc3)cs2)cc1 [Compound 68, N-(4-Fluorophenyl)-N-[2-(4-methoxy-phenoxymethyl)-thiazol-4-ylmethyl]-2,2-dimethyl-propionamide]",pIC50,[1],5.92
same,pIC50,[2],5.49
"CC(C)c1cccc(N(Cc2csc(N3CCCCC3)n2)C(=O)C(C)(C)C)c1 [Compound 71, N-(3-Isopropyl-phenyl)-2,2-dimethyl-N-(2-piperidin-1-yl-thiazol-4-ylmethyl)-propionamide]",pIC50,[1],6.30
same,pIC50,[2],5.62
"CCC(C)(C)C(=O)N(Cc1csc(N2CCOCC2)n1)c1ccc(F)cc1 [Compound 73, N-(4-Fluorophenyl)-2,2-dimethyl-N-(2-morpholin-4-yl-thiazol-4-ylmethyl)-butyramide]",pIC50,[1],5.07
same,pIC50,[2],4.47
"CN(c1ccc(CN(C(=O)C(C)(C)C)c2ccc(F)cc2)cn1)C1CC1 [Compound 74, N-[6-(Cyclopropyl-methyl-amino)-pyridin-3-ylmethyl]-N-(4-fluorophenyl)-2,2-dimethyl-propionamide]",pIC50,[1],5.55
same,pIC50,[2],4.89
"CC(C)(C)C(=O)N(Cc1csc(-c2ccncc2)n1)c1ccc(F)cc1 [Compound 75, N-(4-Fluorophenyl)-2,2-dimethyl-N-(2-pyridin-4-yl-thiazol-4-ylmethyl)-propionamide]",pIC50,[1],4.96
same,pIC50,[2],4.33
"CN1CCN(c2ncc(CN(C(=O)C(C)(C)C)c3ccc(F)cc3)s2)CC1 [Compound 76, N-(4-Fluorophenyl)-2,2-dimethyl-N-[2-(4-methyl-piperazin-1-yl)-thiazol-5-ylmethyl]-propionamide]",pIC50,[1],5.28
same,pIC50,[2],4.54
